In patent publication US20100056526A1, “HETEROMONOCYCLIC COMPOUND AND USE THEREOF” (Takeda Pharmaceutical Company Limited, priority 2006, published 2010):
Counter-ions that a name gives are not always drawn. Like-named read-outs stand apart in the source and are kept apart here.

Key:
PPARγ = molecular target: T1, PPARγ (Homo sapiens, UniProt P37231); test: Evaluation of PPARγ activating action (luciferase reporter in PPARγ:RXRα:4ERPP/CHO-K1 cells); assay type: cell-based; conditions: CHO-K1, 24 h, read-out: PPARγ activating action (activation % (10^−6 M))
T1 construct: expressed in transfected cells; host or cells: CHO-K1
T1 sequence (P37231 1-477 isoform P37231-2): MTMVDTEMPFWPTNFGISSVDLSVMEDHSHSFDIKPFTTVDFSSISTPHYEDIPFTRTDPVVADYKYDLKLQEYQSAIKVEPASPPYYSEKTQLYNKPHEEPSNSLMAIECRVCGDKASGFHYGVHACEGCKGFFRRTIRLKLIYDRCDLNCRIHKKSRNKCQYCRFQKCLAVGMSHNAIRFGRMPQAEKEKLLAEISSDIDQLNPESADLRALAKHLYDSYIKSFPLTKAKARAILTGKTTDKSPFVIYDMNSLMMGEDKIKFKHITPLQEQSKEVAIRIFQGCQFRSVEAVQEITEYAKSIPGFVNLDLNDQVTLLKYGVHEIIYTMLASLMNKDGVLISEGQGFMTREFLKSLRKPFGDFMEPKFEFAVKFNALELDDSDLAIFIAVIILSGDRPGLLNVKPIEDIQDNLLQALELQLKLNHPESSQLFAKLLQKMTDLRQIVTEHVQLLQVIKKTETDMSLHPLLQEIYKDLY
T1 sequence (P19793 1-462 partner): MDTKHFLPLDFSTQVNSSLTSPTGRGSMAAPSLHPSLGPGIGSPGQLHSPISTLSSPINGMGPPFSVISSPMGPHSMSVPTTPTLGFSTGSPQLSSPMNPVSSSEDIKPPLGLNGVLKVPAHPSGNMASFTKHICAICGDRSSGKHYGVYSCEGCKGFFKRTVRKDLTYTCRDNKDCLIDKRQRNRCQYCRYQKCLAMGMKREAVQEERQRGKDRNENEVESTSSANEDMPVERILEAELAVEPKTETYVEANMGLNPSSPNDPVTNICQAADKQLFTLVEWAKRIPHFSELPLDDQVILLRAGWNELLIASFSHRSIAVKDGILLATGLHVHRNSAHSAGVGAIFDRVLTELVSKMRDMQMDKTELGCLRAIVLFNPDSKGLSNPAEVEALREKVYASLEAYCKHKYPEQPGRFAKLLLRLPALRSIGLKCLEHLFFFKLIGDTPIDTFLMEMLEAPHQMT
How it was run: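 Activity is expressed as percent, where vehicle gives 0% and 1 μM compound X gives 100%, based on luciferase luminescence. Reporter CHO-K1 cells co-expressing PPARγ:RXRα with a 4ERPP-driven luciferase were incubated with test compound for one day at 37 °C in medium with 0.1% fatty acid-free BSA.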

human AT1 receptor = molecular target: T2, human AT1 receptor (Homo sapiens, UniProt P30556); test: Binding assay using human AT1 receptor-expressing CHO-K1 cell membrane fraction ([125I]-angiotensin II); conditions: 22.5 pM [125I]-angiotensin II, 9 μg AT1 membrane, 1 hr room temperature; read-out: AT1 receptor binding inhibitory action (IC50 (nM))
T2 construct: expressed in transfected cells; host or cells: CHO-K1
T2 sequence (P30556 1-359): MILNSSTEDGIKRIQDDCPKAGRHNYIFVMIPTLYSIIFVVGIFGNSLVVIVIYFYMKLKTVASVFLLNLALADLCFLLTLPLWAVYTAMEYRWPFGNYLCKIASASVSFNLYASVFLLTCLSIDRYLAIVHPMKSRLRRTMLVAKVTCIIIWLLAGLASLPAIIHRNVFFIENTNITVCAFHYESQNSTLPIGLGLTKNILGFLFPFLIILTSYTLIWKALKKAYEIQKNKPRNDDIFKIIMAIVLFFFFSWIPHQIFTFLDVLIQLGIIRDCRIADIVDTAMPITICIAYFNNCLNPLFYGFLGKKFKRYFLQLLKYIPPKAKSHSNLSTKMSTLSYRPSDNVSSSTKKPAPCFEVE
How it was run: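 Radioligand displacement: test compound competed with [125I]-angiotensin II (22.5 pM) on stable CHO-K1 AT1 membrane fraction, 1 hr, room temperature, Tris pH 7.4/MgCl2 buffer ± 0.3 mg/mL BSA. Filtration then scintillation counting; 1 μM CV-11974 defined nonspecific binding. Values are IC50s.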

[1] = test compound 10^−6 M, luciferase activity relative to control compound X (1 μM) = 100%, non-administration group = 0%

Row | Compound | activation at 1 µM (PPARγ; [1]) [%] | IC50 (human AT1 receptor) [nM] | activation at 1 µM (PPARγ) [%]
1 | CCCc1nc(CC)n(-c2ccc(OC(C)(C)C(C)O)cc2)c(=O)c1Cc1ccc(-c2ccccc2-c2noc(=O)[nH]2)cc1 (centres unmarked) [Example 444, 2-ethyl-3-[4-(2-hydroxy-1,1-dimethylpropoxy)phenyl]-5-{[2′-(5-oxo-4,5-dihydro-1,2,4-oxadiazol-3-yl)biphenyl-4-yl]methyl}-6-propylpyrimidin-4(3H)-one] | 55.4 | 1.3 | –
2 | CCCc1nc(CC)n(-c2ccc(OC(C)(C)C(C)=O)cc2)c(=O)c1Cc1ccc(-c2ccccc2-c2noc(=O)[nH]2)cc1 [Example 445, 3-[4-(1,1-dimethyl-2-oxopropoxy)phenyl]-2-ethyl-5-{[2′-(5-oxo-4,5-dihydro-1,2,4-oxadiazol-3-yl)biphenyl-4-yl]methyl}-6-propylpyrimidin-4 (3H)-one] | 62.9 | 1.2 | –
3 | CCCc1nc(C)c(-c2ccc(OC(C)C)cc2)c(=O)n1Cc1ccc(-c2ccccc2-c2noc(O)n2)cc1F [Example 450, 3-{[3-fluoro-2′-(5-oxo-4,5-dihydro-1,2,4-oxadiazol-3-yl)biphenyl-4-yl]methyl}-5-(4-isopropoxyphenyl)-6-methyl-2-propylpyrimidin-4(3H)-one] | 23.7 | 1.8 | –
4 | CCCCc1nc(C)c(C(O)c2ccccc2)c(=O)n1Cc1ccc(-c2ccccc2-c2noc(=O)[nH]2)cc1 (centres unmarked) [Example 452, 2-butyl-5-[hydroxy(phenyl)methyl]-6-methyl-3-{[2′-(5-oxo-4,5-dihydro-1,2,4-oxadiazol-3-yl)biphenyl-4-yl]methyl}pyrimidin-4(3H)-one] | 52.9 | 2.1 | –
5 | CCCCc1nc(C)c(C(=O)c2ccccc2)c(=O)n1Cc1ccc(-c2ccccc2-c2noc(=O)[nH]2)cc1 [Example 453, 5-benzoyl-2-butyl-6-methyl-3-{[2′-(5-oxo-4,5-dihydro-1,2,4-oxadiazol-3-yl)biphenyl-4-yl]methyl}pyrimidin-4(3H)-one] | 22.5 | 2.9 | –
6 | CCCc1nc(CC)c(CN2CCOCC2)c(=O)n1Cc1ccc(-c2ccccc2-c2noc(=O)[nH]2)cc1 [Example 455, 6-ethyl-5-(morpholin-4-ylmethyl)-3-{[2′-(5-oxo-4,5-dihydro-1,2,4-oxadiazol-3-yl)biphenyl-4-yl]methyl}-2-propylpyrimidin-4(3H)-one] | 16 | 2 | –
7 | CCCc1nc(CC)c(-c2ccc(OC)cc2)c(=O)n1Cc1ccc(-c2ccccc2-c2noc(O)n2)cc1 [Example 456, 6-ethyl-5-(4-methoxyphenyl)-3-{[2′-(5-oxo-4,5-dihydro-1,2,4-oxadiazol-3-yl)biphenyl-4-yl]methyl}-2-propylpyrimidin-4(3H)-one] | 30 | 1.8 | –
8 | CCCc1nc(CC)c(-c2ccc(OC(F)(F)F)cc2)c(=O)n1Cc1ccc(-c2ccccc2-c2noc(O)n2)cc1 [Example 457, 6-ethyl-3-{[2′-(5-oxo-4,5-dihydro-1,2,4-oxadiazol-3-yl)biphenyl-4-yl]methyl}-2-propyl-5-[4-(trifluoromethoxy)phenyl]pyrimidin-4(3H)-one] | 36 | 3.5 | –
9 | CCCc1nc(CC)c(C(O)C(C)C)c(=O)n1Cc1ccc(-c2ccccc2-c2noc(O)n2)cc1 (centres unmarked) [Example 473, 6-ethyl-5-(1-hydroxy-2-methylpropyl)-3-{[2′-(5-oxo-4,5-dihydro-1,2,4-oxadiazol-3-yl)biphenyl-4-yl]methyl}-2-propylpyrimidin-4(3H)-one potassium salt] | – | 3.6 | 15.7
10 | CCCc1nc(C)c(-c2ccc(OC(C)(C)C)cc2)c(=O)n1Cc1ccc(-c2ccccc2-c2noc(O)n2)cc1F [Example 475, 5-(4-tert-butoxyphenyl)-3-{[3-fluoro-2′-(5-oxo-4,5-dihydro-1,2,4-oxadiazol-3-yl)biphenyl-4-yl]methyl}-6-methyl-2-propylpyrimidin-4(3H)-one] | 28.7 | 2 | –
11 | CCCc1nc(C)c(Oc2ccc(OC)cc2)c(=O)n1Cc1ccc(-c2ccccc2-c2noc(O)n2)cc1 [Example 476, 5-(4-methoxyphenoxy)-6-methyl-3-{[2′-(5-oxo-4,5-dihydro-1,2,4-oxadiazol-3-yl)biphenyl-4-yl]methyl}-2-propylpyrimidin-4(3H)-one potassium salt] | – | 2.1 | 18.5

Now from value to compound, other results behind:

Row | activation at 1 µM (PPARγ; [1]) [%] | IC50 (human AT1 receptor) [nM] | Compound | activation at 1 µM (PPARγ) [%]
12 | 36 | 2.2 | CCCc1nc(CC)c(-c2ccc(OC(C)C)cc2F)c(=O)n1Cc1ccc(-c2ccccc2-c2noc(O)n2)cc1 [Example 458, 6-ethyl-5-(2-fluoro-4-isopropoxyphenyl)-3-{[2′-(5-oxo-4,5-dihydro-1,2,4-oxadiazol-3-yl)biphenyl-4-yl]methyl}-2-propylpyrimidin-4(3H)-one] | –
13 | 40 | 2.1 | CCCOc1ccc(-c2c(CC)nc(CCC)n(Cc3ccc(-c4ccccc4-c4noc(=O)[nH]4)cc3)c2=O)cc1 [Example 459, 6-ethyl-3-{[2′-(5-oxo-4,5-dihydro-1,2,4-oxadiazol-3-yl)biphenyl-4-yl]methyl}-5-(4-propoxyphenyl)-2-propylpyrimidin-4(3H)-one] | –
14 | 30 | 2.2 | CCCc1nc(CC)c(-c2ccc(OC(C)C)c(F)c2)c(=O)n1Cc1ccc(-c2ccccc2-c2noc(=O)[nH]2)cc1 [Example 460, 6-ethyl-5-(3-fluoro-4-isopropoxyphenyl)-3-{[2′-(5-oxo-4,5-dihydro-1,2,4-oxadiazol-3-yl)biphenyl-4-yl]methyl}-2-propylpyrimidin-4(3H)-one] | –
15 | 35.7 | 2.5 | CCCc1nc(CC)c(-c2ccc(OC(C)C)nc2)c(=O)n1Cc1ccc(-c2ccccc2-c2noc(O)n2)cc1F [Example 467, 6-ethyl-3-{[3-fluoro-2′-(5-oxo-4,5-dihydro-1,2,4-oxadiazol-3-yl)biphenyl-4-yl]methyl}-5-(6-isopropoxypyridin-3-yl)-2-propylpyrimidin-4(3H)-one] | –
16 | 30.8 | 3.2 | CCCc1nc(CC)c(Oc2ccc(CC)cc2)c(=O)n1Cc1ccc(-c2ccccc2-c2noc(O)n2)cc1 [Example 480, 6-ethyl-5-(4-ethylphenoxy)-3-{[2′-(5-oxo-4,5-dihydro-1,2,4-oxadiazol-3-yl)biphenyl-4-yl]methyl}-2-propylpyrimidin-4(3H)-one] | –
17 | 30.4 | 1.9 | CCCc1nc(C)c(-c2ccc(OC(C)C)nc2)c(=O)n1Cc1ccc(-c2ccccc2-c2noc(=O)[nH]2)cc1F [Example 482, 3-{[3-fluoro-2′-(5-oxo-4,5-dihydro-1,2,4-oxadiazol-3-yl)biphenyl-4-yl]methyl}-5-(6-isopropoxypyridin-3-yl)-6-methyl-2-propylpyrimidin-4(3H)-one] | –
18 | 31.5 | 2.4 | CCCc1nc(CC)c(-c2ccc(OC(C)C)nc2)c(=O)n1Cc1ccc(-c2ccccc2-c2noc(=O)[nH]2)cc1 [Example 483, 6-ethyl-5-(6-isopropoxypyridin-3-yl)-3-{[2′-(5-oxo-4,5-dihydro-1,2,4-oxadiazol-3-yl)biphenyl-4-yl]methyl}-2-propylpyrimidin-4(3H)-one] | –
19 | 19.4 | 2.3 | CCCc1nc(CC)c(Oc2cc(F)ccc2F)c(=O)n1Cc1ccc(-c2ccccc2-c2noc(=O)[nH]2)cc1 [Example 484, 5-(2,5-difluorophenoxy)-6-ethyl-3-{[2′-(5-oxo-4,5-dihydro-1,2,4-oxadiazol-3-yl)biphenyl-4-yl]methyl}-2-propylpyrimidin-4(3H)-one] | –
